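Dose response: 5 concentrations. Exposure: 48 h. Format: 96-well plates. Endpoint: linear interpolation; highest concentration if not reached. GI50 = concentration required for 50% inhibition of growth.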 Calls of active or inactive are those of the source. Rule as the data show it: active = GI50 up to about 1.1 µM and inactive = higher.
Columns and labels:
Experiment in all cases: NCI tumour cell line growth inhibition, 48 h
[1] = system: HOP-62
[2] = system: A498
[3] = system: SN12C
[4] = system: SK-MEL-2
[5] = system: SR
[6] = system: Malme-3M
[7] = system: HT-29
[8] = system: TK-10
[9] = system: HCC 2998
[10] = system: NCI-H460
[11] = system: LOX IMVI
[12] = system: HCT-15
[13] = system: U-251
[14] = system: NCI-H23
[15] = system: OVCAR-5
[16] = system: KM12
[17] = system: BT-549
[18] = system: MDA-MB-231
[19] = system: HOP-92
[20] = system: MDA-N

SMILES | GI50 [1] | GI50 [2] | GI50 [3] | GI50 [4] | GI50 [5] | GI50 [6] | GI50 [7] | GI50 [8] | GI50 [9] | GI50 [10] | GI50 [11] | GI50 [12] [µM] | GI50 [13] | GI50 [14] | GI50 [15] | GI50 [16] | GI50 [17] | GI50 [18] | GI50 [19] | GI50 [20]
Cc1ccc(S(=O)(=O)N/N=C/CN2C(=O)c3ccccc3C2=O)cc1 | > 100 µM (inactive) | > 100 µM (inactive) | > 100 µM (inactive) | > 100 µM (inactive) | > 100 µM (inactive) | > 100 µM (inactive) | > 100 µM (inactive) | > 100 µM (inactive) | > 100 µM (inactive) | > 100 µM (inactive) | > 100 µM (inactive) | > 100 | > 100 µM (inactive) | > 100 µM (inactive) |  |  |  |  |  | 
CCN(CC)CCCNc1ccc([N+](=O)[O-])c2nc3ccc(OC)cc3c(N)c12 | > 10 µM (inactive) | > 10 µM (inactive) | 2.07 µM (inactive) | > 9.33 µM (inactive) | 1.51 µM (inactive) | > 10 µM (inactive) | 1.77 µM (inactive) | > 10 µM (inactive) |  | 1.82 µM (inactive) | 1.7 µM (inactive) | 1.72 | > 10 µM (inactive) | 2.29 µM (inactive) | > 10 µM (inactive) | 1.57 µM (inactive) | 1.53 µM (inactive) | 1.7 µM (inactive) | > 3.65 µM (inactive) | 
CC(=O)Oc1ccc2c(c1)C(=O)c1nc(C)c(C)nc1C2=O | 23.7 µM (inactive) | > 63.4 µM (inactive) | 46.5 µM (inactive) | 39.6 µM (inactive) | 29.6 µM (inactive) | 19.5 µM (inactive) | 31.8 µM (inactive) | > 100 µM (inactive) | 21.4 µM (inactive) | 30.8 µM (inactive) | 39.4 µM (inactive) | 40.9 | 51.6 µM (inactive) | 43.4 µM (inactive) | > 100 µM (inactive) | 59.3 µM (inactive) |  |  | > 87.1 µM (inactive) | 
Cc1nc2cn3c(c2c(=O)[nH]1)CCCCC3 | > 100 µM (inactive) | > 100 µM (inactive) |  | > 100 µM (inactive) | > 100 µM (inactive) |  | > 100 µM (inactive) | > 100 µM (inactive) | > 100 µM (inactive) | > 100 µM (inactive) | > 100 µM (inactive) | > 100 | > 100 µM (inactive) | > 100 µM (inactive) |  | > 100 µM (inactive) | > 100 µM (inactive) | 28.2 µM (inactive) | > 100 µM (inactive) | 
Nc1ncn(C2C=C(CO)C(O)C2O)c(=O)n1 (centres undefined) | 35.1 µM (inactive) | > 100 µM (inactive) | 32.4 µM (inactive) | 94.4 µM (inactive) | 26.7 µM (inactive) | > 100 µM (inactive) |  | > 100 µM (inactive) | 89.7 µM (inactive) | 35 µM (inactive) |  | 54.2 | > 100 µM (inactive) |  |  | > 100 µM (inactive) |  |  |  | 
S=C1CNC(=S)CN1 | > 100 µM (inactive) | > 100 µM (inactive) | > 100 µM (inactive) | > 100 µM (inactive) | > 100 µM (inactive) | > 100 µM (inactive) | > 100 µM (inactive) | > 100 µM (inactive) | > 100 µM (inactive) | > 100 µM (inactive) | > 100 µM (inactive) | > 100 | > 100 µM (inactive) |  | > 100 µM (inactive) | > 100 µM (inactive) |  |  | > 100 µM (inactive) | 
Cc1ccc(N2C(=O)/C(=C/c3ccc(N(CCC#N)CCC#N)cc3C)N=C2c2cc([N+](=O)[O-])ccc2Cl)cc1 | > 100 µM (inactive) | > 100 µM (inactive) | > 100 µM (inactive) | > 100 µM (inactive) | 58.2 µM (inactive) | > 100 µM (inactive) | > 100 µM (inactive) | > 100 µM (inactive) | > 100 µM (inactive) | > 100 µM (inactive) |  | > 100 | > 100 µM (inactive) | > 100 µM (inactive) | > 100 µM (inactive) | > 100 µM (inactive) |  |  | > 100 µM (inactive) | 
COc1ccc(SS(=O)(=O)c2ccc(OC)cc2)cc1 | 23.8 µM (inactive) | 17.2 µM (inactive) | 20.3 µM (inactive) | 36 µM (inactive) | 23.1 µM (inactive) | 33.3 µM (inactive) | 32.1 µM (inactive) | 23.3 µM (inactive) | 13.6 µM (inactive) | 38.6 µM (inactive) | 17.5 µM (inactive) | 36.7 | 14.2 µM (inactive) | 26.1 µM (inactive) | 30 µM (inactive) | 16.5 µM (inactive) |  |  | 35.9 µM (inactive) | 
CS(=O)(=O)OCCN(CCOS(C)(=O)=O)c1ccc(/C=N/c2ccc(-c3csc(Cc4ccccc4)n3)cc2)c(Cl)c1 | 13 µM (inactive) | 0.102 µM (active) | 28.8 µM (inactive) | > 46 µM (inactive) | 23.7 µM (inactive) | 37.1 µM (inactive) | 21.9 µM (inactive) | 3.93 µM (inactive) | 10.9 µM (inactive) | 0.387 µM (active) | 20.1 µM (inactive) | 30.3 | 28.2 µM (inactive) | 23.5 µM (inactive) | 5.01 µM (inactive) | 28.6 µM (inactive) |  | 25 µM (inactive) | 0.596 µM (active) | 21.6 µM (inactive)
CNC(=O)C1CCc2nnc(-c3ccccc3)n21 (centres undefined) | > 100 µM (inactive) | > 100 µM (inactive) | > 100 µM (inactive) | > 100 µM (inactive) | > 100 µM (inactive) | > 100 µM (inactive) |  | > 100 µM (inactive) | > 100 µM (inactive) | > 100 µM (inactive) |  | > 100 | > 100 µM (inactive) |  |  | > 100 µM (inactive) |  |  |  | 
O=C(/C=C/c1ccc(Cl)cc1)Oc1ccc(/C=C2\CCCCC2=O)cc1 | > 100 µM (inactive) | > 100 µM (inactive) | > 100 µM (inactive) | > 100 µM (inactive) | > 100 µM (inactive) | > 100 µM (inactive) | 23 µM (inactive) | > 100 µM (inactive) | > 100 µM (inactive) | > 100 µM (inactive) | > 100 µM (inactive) | > 100 | > 100 µM (inactive) | > 100 µM (inactive) | > 100 µM (inactive) | > 100 µM (inactive) |  | > 100 µM (inactive) | > 100 µM (inactive) | > 100 µM (inactive)
CSc1nc2c(N)ncnc2n1C | > 100 µM (inactive) | > 100 µM (inactive) | > 100 µM (inactive) | > 100 µM (inactive) |  | > 100 µM (inactive) | > 100 µM (inactive) | > 100 µM (inactive) | > 100 µM (inactive) | > 100 µM (inactive) | > 100 µM (inactive) | > 100 | > 100 µM (inactive) |  | > 100 µM (inactive) | > 100 µM (inactive) |  | > 100 µM (inactive) |  | > 100 µM (inactive)
O=C1CCC[C@@H]2NC[C@@H](c3ccc4c(c3)OCO4)[C@H]12 | > 25 µM (inactive) | > 25 µM (inactive) | > 25 µM (inactive) | > 25 µM (inactive) | > 25 µM (inactive) | > 25 µM (inactive) | > 25 µM (inactive) | > 25 µM (inactive) | > 25 µM (inactive) | > 25 µM (inactive) | > 25 µM (inactive) | > 25 | > 25 µM (inactive) | > 25 µM (inactive) | > 25 µM (inactive) | > 25 µM (inactive) |  | > 25 µM (inactive) | > 25 µM (inactive) | > 25 µM (inactive)
NC(=O)N=C(N(Cc1ccccc1)Cc1ccccc1)N(Cc1ccccc1)Cc1ccccc1 | 15.3 µM (inactive) | 39.8 µM (inactive) | 6.08 µM (inactive) | > 100 µM (inactive) | > 100 µM (inactive) | > 100 µM (inactive) | 4 µM (inactive) | > 65.3 µM (inactive) | 5.22 µM (inactive) |  | 5.89 µM (inactive) | > 28.4 | 7.45 µM (inactive) | 9.42 µM (inactive) | > 100 µM (inactive) | > 100 µM (inactive) | > 100 µM (inactive) | 15.3 µM (inactive) | 4.3 µM (inactive) | 
O=C(NC1CCCC1=O)c1ccccc1 (centres undefined) | > 100 µM (inactive) | 13.7 µM (inactive) | > 100 µM (inactive) | > 100 µM (inactive) | > 100 µM (inactive) | > 100 µM (inactive) | > 100 µM (inactive) | > 100 µM (inactive) |  | > 100 µM (inactive) |  |  | > 100 µM (inactive) | > 100 µM (inactive) | > 100 µM (inactive) | > 100 µM (inactive) |  |  | > 100 µM (inactive) | 
CC(OC(C)(C)C)[C@H](NC(=O)OC(C)(C)C)C(=O)O (some centres undefined) | > 100 µM (inactive) | > 100 µM (inactive) | > 100 µM (inactive) |  | > 100 µM (inactive) | > 100 µM (inactive) | > 100 µM (inactive) | > 100 µM (inactive) | > 100 µM (inactive) | > 100 µM (inactive) | > 100 µM (inactive) | > 100 | > 100 µM (inactive) | > 100 µM (inactive) | > 100 µM (inactive) | > 100 µM (inactive) | > 100 µM (inactive) | > 100 µM (inactive) | > 100 µM (inactive) | 
N=C(N)SCc1ccc2c(c1)S(=O)(=O)c1ccccc1O2 | 19 µM (inactive) | 17.5 µM (inactive) | 37.5 µM (inactive) | 16.4 µM (inactive) | 23 µM (inactive) |  | 15.6 µM (inactive) | 15.7 µM (inactive) | 22.1 µM (inactive) | 19.6 µM (inactive) | 19.4 µM (inactive) | 25.8 | 18.1 µM (inactive) | 19.1 µM (inactive) | 22 µM (inactive) | 16.9 µM (inactive) |  | 39.8 µM (inactive) | 15.7 µM (inactive) | 17.7 µM (inactive)
